≈ marks a conversion by molar mass, not a printed value.
Assays:
[1] = tested on: influenza A/Singapore/1/57 (H2N2); assay: microbe, parasite or virus in culture; format: cell-based; settings: for IC50: Influenza A virus, H2N2, MDCK, 72 h, read-out: I50 Plaque Assay Flu A; for I50 Plaque Assay Flu A: reduction of viral plaque formation in MDCK cells, 3 days at 37°C
[2] = molecular target: N2 influenza neuraminidase (Influenza A virus, UniProt Q91MA2); assay: biochemical; format: biochemical, influenza virus (virion X31); settings: for NA1: pH 6.5
[3] = tested on: influenza B/Victoria/102/85; assay: microbe, parasite or virus in culture; format: cell-based; settings: for IC50: Influenza B virus, MDCK, 72 h, read-out: I50 Plaque Assay Flu B

N2 influenza neuraminidase, sequence (Q91MA2 whole entry, looked up): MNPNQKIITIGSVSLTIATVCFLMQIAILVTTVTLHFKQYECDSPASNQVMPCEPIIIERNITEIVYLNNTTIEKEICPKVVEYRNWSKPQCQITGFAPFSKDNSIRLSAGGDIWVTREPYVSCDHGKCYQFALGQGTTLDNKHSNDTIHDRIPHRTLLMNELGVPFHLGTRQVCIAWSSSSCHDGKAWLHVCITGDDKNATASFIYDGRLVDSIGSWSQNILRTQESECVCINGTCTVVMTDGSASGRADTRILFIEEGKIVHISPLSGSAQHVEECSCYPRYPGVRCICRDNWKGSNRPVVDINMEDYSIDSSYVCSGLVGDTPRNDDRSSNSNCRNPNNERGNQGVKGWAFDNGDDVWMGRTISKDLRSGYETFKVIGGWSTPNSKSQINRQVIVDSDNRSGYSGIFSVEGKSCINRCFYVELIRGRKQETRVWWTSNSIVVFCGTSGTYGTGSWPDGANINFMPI

Molecule | IC50 [1] [µg/mL] | IC50 [2] [µM] | IC50 [3] [µg/mL] | I50 Plaque Assay Flu A [1] [µg/mL] | I50 Plaque Assay Flu B [3] [µg/mL] | NA1 [2] [µg/mL]
CNC(=N)N[C@H]1C=C(C(=O)O)O[C@@H]([C@H](O)[C@H](O)CO)[C@@H]1NC(C)=O [Example 3, 5-(Acetylamino)-4-[[amino(methylimino)methyl]amino]-2,6-anhydro-3,4,5-trideoxy-D-glycero-D-galacto-non-2-enonic acid] | 3 (≈ 8.66 µM) | 12.1 | – | – | – | –
CCOC(=O)NC(=N)N[C@H]1C=C(C(=O)O)O[C@@H]([C@H](O)[C@H](O)CO)[C@@H]1NC(C)=O [Example 5, 5-(Acetylamino)-4-[[amino(ethoxycarbonylimino)methyl]amino]-2,6-anhydro-3,4,5-trideoxy-D-glycero-D-galacto-non-2-enonic acid] | 1.7 (≈ 4.2 µM) | 17.1 | 0.6 (≈ 1.48 µM) | – | – | –
5-(Acetylamino)-4-[[amino(aminoimino)methyl]amino]-2,6-anhydro-3,4,5-trideoxy-D-glycero-D-galacto-non-2-enonic acid [Example 1] | – | – | – | 2.9 | 3.0 | 1.3
5-(Acetylamino)-4-[[amino(hydroxyimino)methyl]amino]-2,6-anhydro-3,4,5-trideoxy-D-glycero-D-galacto-non-2-enonic acid [Example 2] | – | – | – | 0.1 | <0.1 | 0.6
CC(=O)N[C@H]1[C@H]([C@H](O)[C@H](O)CO)OC(C(=O)O)=C[C@@H]1NC(=N)N[N+](=O)[O-] [Example 4, 5-(Acetylamino)-4-[[amino(nitroimino)methyl]amino]-2,6-anhydro-3,4,5-trideoxy-D-glycero-D-galacto-non-2-enonic acid] | 30 (≈ 79.5 µM) | 2.65 | 24 (≈ 63.6 µM) | – | – | –

Reference: patent EP0539204B1 (priority 1991, dated 1993)
